Among the data in ChEMBL document CHEMBL1157539, “Thousands of chemical starting points for antimalarial lead identification” (Nature, 2010) are XC50 values, retold here.

Molecules are shown by their SMILES.

The subject of the assay is Plasmodium falciparum. Nature of the assay: GSK_TCMDC: Inhibition of Plasmodium falciparum 3D7 in whole erythrocytes, using parasite LDH activity as an index of growth. The format is functional, organism-based. Conditions: Plasmodium falciparum, 3D7.
`CCN(CC)CCN(Cc1ccc(-c2ccc(C(F)(F)F)cc2)cc1)C(=O)Cn1cc(Cc2cnn(C)c2)c(=O)nc1/C=C/c1ccc(F)cc1` registered an XC50 of 1060 nM.
For the compound `CCOC(=O)c1cn(CC)c2cc(N3CCCCCC3)c(F)cc2c1=O`, the XC50 was found to be 413 nM.
The figure for `CN(CCN)Cc1cccc(-c2ccc(-c3nc4cc(C(F)(F)F)ccc4[nH]3)s2)c1` is 997 nM.
The compound `CC1(C)CNCc2cc(NC(=O)/C=C/c3ccc(Cl)cc3)ccc21` showed an XC50 of 1180 nM.
The figure for `CCCCn1c(=N)c(C(=O)NCc2cccnc2)cc2c(=O)n3cccc(C)c3nc21` is 745 nM; for `COc1cc(F)c2ncc(Cl)c([C@@H](O)CN3CCC(NCc4cc5c(cn4)OCCO5)CC3)c2c1` it is 102 nM; for `Oc1ccc(CN2CCC(N3CCN(CCc4ccccc4)CC3)C(O)C2)cc1Cl` (stereo unspecified) it is 865 nM.
As to `Cc1ccc(OCCCCONC(=O)c2ccccc2)cc1`, the XC50 was 145 nM.
`CCCOc1ccc(-c2nonc2NC(=O)c2cccc(OC)c2)cc1OCCC` yielded an XC50 of 1150 nM.
Consider `CCOc1c(Br)cc(C)cc1CNCCCNc1nc2ccccc2[nH]1`, for which the XC50 stood at 666 nM.
As for `COc1ccc(N2CCN(C(CNC(=O)C3CCCCC3)c3ccc4c(c3)OCO4)CC2)cc1` (stereo unspecified), the XC50 amounted to 566 nM.
Turning to `CN(C)c1ccc(-c2ccc(C(=O)NC3CCN(Cc4ccc5c(c4)OCCO5)CC3)s2)cc1`, the XC50 came to 1120 nM.
As for `COc1ccc(NC(=O)Nc2cccc(-c3cccc(-c4nc5cc(F)ccc5[nH]4)c3)c2)cc1`, the XC50 came to 171 nM.
The value for `Cc1ccc(NC(=S)N2CCCN(CCCCCNC(=O)/C=C/c3ccc(Cl)c(Cl)c3)CC2)cc1Cl` was 916 nM; that for `O=C(CN1CCN(C(=O)c2ccco2)CC1)Nc1ccccc1Br` was 558 nM.
The value for `O=C(/C=C/c1ccc(-c2nc3ccc(Cl)cc3[nH]2)cc1)NCc1cccc(F)c1` was 640 nM.
Compound `CC(C)c1ccc(OCC(O)CN(C)C(C)C(O)c2ccccc2)c(Br)c1` (stereo unspecified) registered an XC50 of 815 nM.
`Cc1c(Cl)cccc1S(=O)(=O)N1CCCCC(c2ccc(C(F)(F)F)cc2)=N1` returned an XC50 of 788 nM.
The figure for `Cc1nnsc1C(=O)Nc1cccc(-c2ccc(-c3nc4ccccc4[nH]3)s2)c1` is 885 nM; for `O=C(Nc1cccc(CN2CCN(Cc3ccc(O)cc3)CC2)c1)c1cc2ccccc2o1` it is 1180 nM.
For `CCN1CCN(c2cc(C)c3cc(NC(=O)c4cccc(C(F)(F)F)c4)ccc3n2)CC1`, the XC50 worked out at 568 nM.
For the compound `COc1ccccc1C(=O)Nc1ccc(Nc2nc(C)cc(N(C)C)n2)cc1`, the XC50 was found to be 789 nM.
Turning to `CC1CCCCC1N(C)C1CCN(CCCNC(=O)C=Cc2ccccc2Cl)CC1` (stereo unspecified), the XC50 was determined as 666 nM.
In turn, `Cc1ccc(NC(=O)Nc2ccc(Cl)c(C(F)(F)F)c2)cc1-c1ccc(C(=O)NCCN2CCOCC2)cc1` gave an XC50 of 811 nM.
In turn, `Cn1cncc1CCCN(Cc1ccc(-c2ccc(C(F)(F)F)cc2)cc1)C(=O)Cn1c(CCc2cccc(F)c2F)cc(=O)c2cccnc21` yielded an XC50 of 1250 nM.
`Oc1ccccc1CNCc1ccc(-c2cnc(N3CCCC(c4ccccc4)C3)nc2)cc1` (stereo unspecified): the XC50 stood at 689 nM.
As to `CCCN(CCC)C(C)CCC(C)Nc1c2ccc(Cl)cc2nc2ccc(OC)cc12` (stereo unspecified), the XC50 came out at 70.8 nM.
In turn, `CC(C)(C)OC(=O)Nc1cccc(-c2csc(NC(=N)N)n2)c1` had an XC50 of 836 nM.
Take `Cc1cc(N[C@@H](CC(C)C)C(=O)NCCc2ccccc2)nc(NCCc2cccs2)n1`: the XC50 is 1200 nM.
Compound `COc1ccc2nc(/N=C3\NC(c4ccccn4)(c4ccccn4)C(=O)N3C)[nH]c2c1` returned an XC50 of 586 nM.
In turn, `Cc1cccc2nc(-c3cccc(-c4ccc(NC(=O)c5cnn6cccnc56)cc4)c3)[nH]c12` gave an XC50 of 212 nM.
The figure for `CCN(CC)c1ccc(-c2nc3cc(Cl)cnc3[nH]2)cc1` is 1130 nM; for `Cc1cccc2nc(-c3ccc(-c4cccc(CNCCN(C)C)c4)cc3)[nH]c12` it is 682 nM; for `O=C(c1ccc(-c2cccc(-c3nc4cc(F)ccc4[nH]3)c2)cc1)N1CCCCC1CN1CCC(O)C1` (stereo unspecified) it is 1400 nM.
Take `COc1ccc(Cl)cc1S(=O)(=O)Nc1cccc(CCN2CCC(N3CCCCC3)CC2)c1`: the XC50 amounted to 704 nM.
The value for `O=C(NC(CCCN1CCC2(CC1)OCc1ccccc12)c1ccc(Cl)c(Cl)c1)c1cc(C(F)(F)F)cc(C(F)(F)F)c1` (stereo unspecified) was 543 nM; that for `CC(Oc1ccc(Cl)cc1)C(=O)Nc1cc(C(F)(F)F)ccc1N1CCOCC1` (stereo unspecified) was 532 nM; that for `NC1=NC2(CCCCC2)N(OCCCCCCc2ccccc2)C(N)=N1` was 347 nM.
Compound `CO/C(=C\C=C\c1cc2cc(Cl)c(Cl)cc2[nH]1)C(=O)NCCCN1CCN(c2cccc(Cl)c2)CC1` had an XC50 of 730 nM.
On to `COc1ccc2nccc(N3CCC(NCCNCc4ccc5c(n4)NC(=O)CO5)C3)c2n1` (stereo unspecified), for which the XC50 was 862 nM.
The value for `N#Cc1ccc2c(c1)CN(CCC1CCC(NC(=O)c3cc4cc(OC(F)(F)F)ccc4[nH]3)CC1)CC2` (stereo unspecified) was 777 nM; that for `COc1ccccc1N1CCN(C(C(=O)NCc2ccc3c(c2)OCO3)c2ccc(C)cc2)CC1` (stereo unspecified) was 985 nM.
For the compound `COc1ccc(NC(=O)/C=C/c2ccc(Cl)c(C(F)(F)F)c2)cc1OCCN(C(C)C)C(C)C`, the XC50 turned out to be 626 nM.
For `CCC1CN2CCc3cc(OC)c(OC)cc3C2CC1CC1NCCc2c1[nH]c1ccc(O)cc21` (stereo unspecified), the XC50 worked out at 103 nM.
The value for `COc1ccc(OCCCON2C(=N)N=C(N)NC2(C)C)cc1` was 3.2 nM.
`COCCN1CCC(C(=O)NCC(C)(C)c2nc(-c3ccc(Br)c(O)c3)c(-c3ccncc3)[nH]2)CC1` displayed an XC50 of 911 nM.
The compound `O=C(Nc1ccc(OC2CCN(Cc3ccc(F)cc3)C2)c(Cl)c1)c1ccco1` (stereo unspecified) had an XC50 of 195 nM.
Regarding `CC(C)c1cccc(OCC2CCN(c3ncc(C(=O)Nc4ccccc4)cc3Cl)CC2)c1`, the XC50 came to 1060 nM.
In turn, `Cc1[nH]c2ccc(C#N)cc2c(=O)c1Br` registered an XC50 of 640 nM.
Regarding `OCC1CCN(Cc2ccc(-c3ccc(-c4nc5cc(F)ccc5[nH]4)s3)cc2)CC1`, the XC50 worked out at 850 nM.
Consider `O=C(Nc1cccc(F)c1)NC1CCN(c2ccnc3cc(Cl)ccc23)CC1`, for which the XC50 was found to be 609 nM.
Consider `O=C(/C=C/c1ccc(Cl)c(Cl)c1)NC1CCC(CN2CCC(c3coc4ccccc34)CC2)CC1` (stereo unspecified), for which the XC50 is 826 nM.
In the case of `Cc1c(Br)cc2nc(-c3ccc(C(=O)NC4CCN(Cc5ccccc5)CC4)cc3)[nH]c2c1C`, the XC50 was 332 nM.
Turning to `O=C(N[C@@H](CC1CCCCC1)C(=O)NC1CCCCCC1)c1ccc(O)c(-c2ccc(Cl)c(Cl)c2)c1`, the XC50 is 102 nM.
The value for `O=C(Nc1ccc(OC2CCN(Cc3ccsc3)CC2)c(Cl)c1)c1ccco1` was 784 nM.
`COc1cc(-n2c(CN3CCCC3)nc3cc(-c4ccc(Cl)cc4)sc3c2=O)ccc1OCCN1CCCC1` registered an XC50 of 1040 nM.
As to `COC(=O)c1sc(-c2ccc(Cl)cc2)cc1N(CCCN1CCC(N2CCCCC2)CC1)S(=O)(=O)c1ccc(C)cc1`, the XC50 was 744 nM.
The value for `COc1ccc(-c2ccc(NC(=O)c3ccc(C#N)cc3)cc2)cc1CN1CCC(O)CC1` was 581 nM.
The figure for `NCc1ccc(CNCc2ccc(-c3ccc(-c4nc5cc(C(F)(F)F)ccc5[nH]4)s3)cc2)cc1` is 157 nM; for `O=S(=O)(c1ccc(OCc2ccc(Cl)cc2)cc1)c1cc2c(cc1OCc1ccccc1)CCN(C1CCC1)CC2` it is 1020 nM; for `CC(=O)c1ccc(N2CCN(C(=O)Nc3ccc(Cl)cc3)CC2)cc1` it is 979 nM.
The figure for `O=C(NC1CCN(c2ccnc3cc(Cl)ccc23)C1)c1ccc(F)cc1` (stereo unspecified) is 187 nM; for `CC(CCON1C(N)=NC(N)=NC1(C)C)c1ccc(Cl)c(Cl)c1` (stereo unspecified) it is 3.2 nM; for `CCOc1cc(CC)ccc1C1CCN(CCN2CCC(CNC(=O)c3ccc(-c4ccc(C#N)cc4)cc3)CC2)CC1` it is 708 nM.
In turn, `CN1CCN(CCCN(Cc2cccc(-c3ccc(CNC4CCCC4)cc3)c2)C(=O)CCC2CCCC2)CC1` showed an XC50 of 761 nM.
In the case of `O=C(Nc1cccc(C(F)(F)F)c1)NC1CCN(c2ccnc3cc(Cl)ccc23)CC1`, the XC50 is 289 nM.
With `CCN(CC)S(=O)(=O)c1ccc(C(=O)Oc2ccccc2N(Cc2ccc(OC)cc2)C2=NS(=O)(=O)c3ccccc32)cc1`, the XC50 was found to be 585 nM.
`O=S(=O)(c1ccc(NC(S)=NN=Cc2ccccn2)cc1)N1CCCCC1` displayed an XC50 of 720 nM.
Compound `COc1ccc(CNCc2cccc(-c3ccc(-c4nc5ccccc5[nH]4)cc3)c2)cc1` had an XC50 of 311 nM.
As to `COc1cccc(NC(=O)N2CCOC(CCN3CCC4(CCc5ccccc54)CC3)(c3ccc(Cl)c(Cl)c3)C2)c1` (stereo unspecified), the XC50 came to 1010 nM.
The figure for `CC(C)(C)CC(=O)Nc1ccc(Nc2cc(-c3ccncc3)cc3ncc(C(N)=O)cc23)cc1` is 700 nM; for `COc1ccc(NS(=O)(=O)c2ccccc2Br)cc1N1CCN(C)CC1` it is 967 nM; for `CC(=O)c1ccccc1OCCSc1nnc(Cc2cccs2)n1C1CCCCC1` it is 919 nM.
For `CS(=O)(=O)c1ccc(CNCc2cccc(-c3cccc(-c4nc5cc(F)ccc5[nH]4)c3)c2)cc1`, the XC50 worked out at 559 nM.
Take `O=c1ccccn1CCCC1CCCCN1` (stereo unspecified): the XC50 was 809 nM.
With `CCCc1cc([C@@H](O)[C@@H]2C[C@@H]3CCN2C[C@@H]3CC)c2ccccc2n1`, the XC50 is 433 nM.
For the compound `Cc1ccnc(NC(c2ccc(Cl)c([N+](=O)[O-])c2)c2ccc3cccnc3c2O)c1` (stereo unspecified), the XC50 stood at 927 nM.
For the compound `CN1C(C)(C)CC(NC(=O)c2ccc(-c3nc4cc(Cl)c(Cl)cc4[nH]3)cc2)CC1(C)C`, the XC50 turned out to be 730 nM.
For `CN(C)S(=O)(=O)c1ccc(Nc2nc(NCCC3C=NC=N3)nc3cc[nH]c(=O)c23)cc1` (stereo unspecified), the XC50 stood at 929 nM.
The value for `CS(=O)(=O)c1cccc2sc(N3CCN(C(=O)c4ccc([N+](=O)[O-])o4)CC3)nc12` was 1240 nM; that for `c1cc(COc2ccc(C3=NCCN3)cc2)nc(COc2ccc(C3=NCCN3)cc2)c1` was 147 nM; that for `O=C(Nc1ccc(OC2CCN(Cc3ccccc3)CC2)c(Cl)c1)c1ccsc1` was 900 nM.
In turn, `NC(=O)c1cccc(Nc2nccc(Nc3ccc(Oc4cccc5ccccc45)cc3)n2)c1` yielded an XC50 of 1150 nM.
`O=C(/C=C/c1ccc(Cl)c(Cl)c1)NCCCCCN1CCC(c2cn[nH]c2-c2ccccc2)CC1` showed an XC50 of 1220 nM.
Take `CCC1(CC)N=C(N)N=C(N)C1c1ccc(Cl)c(Cl)c1` (stereo unspecified): the XC50 was 380 nM.
`O=C(NCc1ccc(Cl)c(Cl)c1)c1cccc(C2CCCN(Cc3ccc4[nH]cnc4c3)C2)c1` (stereo unspecified) yielded an XC50 of 932 nM.
